Laboratory results as given in PMC5790467, “Enhanced anti-tumor efficacy and mechanisms associated with docetaxel-piperine combination- in vitro and in vivo investigation using a taxane-resistant prostate cancer model” (Oncotarget, 2017).
Converted amounts (≈) assume the structure as drawn.

Key:
PC3-TxR cells = assay: Cell viability (cytotoxicity) of PC3-TxR cells; assay type: cell-based; conditions: Homo sapiens, triplicate samples, read-out: IC50, cytotoxicity of PIP on PC3-TxR
Source text: www.impactjournals.com/oncotarget/ Oncotarget, Supplementary Materials 2017
investigation using a taxane-resistant prostate cancer model
Supplementary Figure 1: Cell viability (measured from triplicate samples) of PC3-TxR cells. (A) The cytotoxicity of PIP
(1 picture or pasted object on this page, not shown here)

PC3-TxR tumor xenografts = assay: Tumor growth in mice with PC3-TxR (taxane-resistant) tumor xenografts; assay type: in vivo, ICR-NOD/SCID mice; conditions: TxR tumor xenografts; two weeks after drug administration; DTX 20 mg/kg once a week i.v., PIP 50 mg/kg daily p.o.
Description: The following experimental protocol was adopted after approval by the Animal Research Ethics Committee at the Chinese University of Hong Kong. PC3 and PC3-TxR cells were cultured in RPMI 1640 medium containing 10% FBS and 1% penicillin-streptomycin in a humidified atmosphere of 5% CO2 at 37°C. PC3 and PC3-TxR cell pellets were re-suspended in serum free RPMI1640 and diluted by Matrigel™ Basement Membrane Matrix (BD Biosciences, Bedford, MA, USA) to the density of 3.33 × 10^6cells/ml. Male ICR-NOD/SCID mice (Laboratory Animal Services Center at the Chinese University of Hong Kong) weighing 25 to 30 g (age 6–8 weeks) was anesthetized with an intraperitoneal injection of a cocktail containing 87 mg/kg ketamine and 8.7 mg/kg xylazine (diluted with saline and the injection volume was about 0.1 ml). The cell suspension was injected subcutaneously to both the left and right flank region. The tumors were allowed to grow for about 2 weeks. Tumor volumes were measured twice per week (tumor volume = [(W^2 × L)/2], where W is the tumor measurement at the widest point, and L is the tumor dimension at the longest point). When the tumors reach about 100 mm^3, treatment was started and the date was designated as Day 0.

P-gp = P-gp (Homo sapiens, UniProt P08183); assay: Intracellular DTX accumulation in PC3-TxR cells; assay type: cell-based; conditions: 100 nM DTX; PIP at 50 μg/ml; 120 min; positive control 10 μg/ml of PSC833
Description: The PC3 and PC3-TxR cells were seeded in 6-well plate with density of 1×10^4 cells/ml and grew for 24 hours. […] The cells were then lysed and the protein level was measured using a BCA approach (Bio Rad Laboratory, Hercules, CA, USA). […] Briefly, to 0.1 ml of cell lysate, 0.3 ml of tert-butyl methyl ether was added and vortexed for 3 min. The upper organic layer was separated and evaporated to dryness. The residue was reconstituted using 0.1 ml of 80% acetonitrile and 10 μl was injected to an HPLC-MS/MS system for quantification. Paclitaxel was used as internal standard. The intracellular concentration was normalized per protein concentration. […] PSC833 (10 μg/ml) was used as positive control. […] The amount of DTX was compared among these treatment groups.

Chain of P-gp (P08183 whole entry): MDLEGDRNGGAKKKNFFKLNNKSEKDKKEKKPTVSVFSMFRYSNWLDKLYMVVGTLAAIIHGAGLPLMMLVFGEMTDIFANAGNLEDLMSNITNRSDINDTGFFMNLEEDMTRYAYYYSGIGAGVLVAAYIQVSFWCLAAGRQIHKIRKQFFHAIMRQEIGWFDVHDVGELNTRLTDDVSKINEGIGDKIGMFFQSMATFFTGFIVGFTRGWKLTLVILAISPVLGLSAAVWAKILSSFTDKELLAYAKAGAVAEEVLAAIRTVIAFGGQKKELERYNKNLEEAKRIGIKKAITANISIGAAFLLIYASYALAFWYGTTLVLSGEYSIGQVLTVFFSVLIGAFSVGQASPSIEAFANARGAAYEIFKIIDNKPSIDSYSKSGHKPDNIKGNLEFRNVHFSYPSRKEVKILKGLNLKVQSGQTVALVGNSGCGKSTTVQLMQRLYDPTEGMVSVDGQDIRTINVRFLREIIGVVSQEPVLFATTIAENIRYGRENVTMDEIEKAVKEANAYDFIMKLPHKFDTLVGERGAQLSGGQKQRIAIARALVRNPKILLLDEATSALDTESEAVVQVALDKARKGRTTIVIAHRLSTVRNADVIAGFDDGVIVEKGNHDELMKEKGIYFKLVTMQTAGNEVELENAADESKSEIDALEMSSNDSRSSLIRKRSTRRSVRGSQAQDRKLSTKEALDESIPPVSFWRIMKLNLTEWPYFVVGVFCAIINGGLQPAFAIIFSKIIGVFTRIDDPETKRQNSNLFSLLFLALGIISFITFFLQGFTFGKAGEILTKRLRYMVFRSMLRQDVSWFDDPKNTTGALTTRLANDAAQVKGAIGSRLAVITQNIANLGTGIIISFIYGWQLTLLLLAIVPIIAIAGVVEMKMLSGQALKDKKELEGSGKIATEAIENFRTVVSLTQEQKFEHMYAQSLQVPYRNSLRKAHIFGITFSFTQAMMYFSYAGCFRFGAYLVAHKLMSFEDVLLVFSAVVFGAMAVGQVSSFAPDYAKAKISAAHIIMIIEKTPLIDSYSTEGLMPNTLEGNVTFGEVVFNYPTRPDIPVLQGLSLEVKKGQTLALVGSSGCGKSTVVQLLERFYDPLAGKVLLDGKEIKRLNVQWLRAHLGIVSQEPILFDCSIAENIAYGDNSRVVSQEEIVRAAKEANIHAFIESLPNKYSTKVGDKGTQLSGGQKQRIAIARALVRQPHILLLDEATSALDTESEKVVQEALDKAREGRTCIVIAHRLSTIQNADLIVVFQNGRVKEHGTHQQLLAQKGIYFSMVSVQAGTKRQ

O=C(/C=C/C=C/c1ccc2c(c1)OCO2)N1CCCCC1 [PIP, 1-piperoyl piperidine]
IC50 (PC3-TxR cells): 47.3 µg/mL (≈ 166 µM) | percentage of tumor size increase (PC3-TxR tumor xenografts): 196% | intracellular DTX concentration in PC3-TxR cells (P-gp): increased to a level similar to that in the positive control
